From ChEMBL document CHEMBL3217425, “Structure-based design, synthesis, and profiling of a -tryptase inhibitor with a spiro-piperidineamide scaffold, benzylamine P1 group, and a substituted indole P4 group” (Medchemcomm, 2011)

How the values were obtained:
[1] = Drug metabolism in rat liver microsomes after 20 mins; type: ADME; settings: read-out: Drug metabolism
[2] = molecular target: T1, hERG (KCNH2) (Homo sapiens, UniProt Q12809); assay: Inhibition of human ERG channel expressed in CHO cells at 10 uM; type: cell-based; settings: CHO cells expressing human ERG channel
T1 sequence (Q12809 whole entry): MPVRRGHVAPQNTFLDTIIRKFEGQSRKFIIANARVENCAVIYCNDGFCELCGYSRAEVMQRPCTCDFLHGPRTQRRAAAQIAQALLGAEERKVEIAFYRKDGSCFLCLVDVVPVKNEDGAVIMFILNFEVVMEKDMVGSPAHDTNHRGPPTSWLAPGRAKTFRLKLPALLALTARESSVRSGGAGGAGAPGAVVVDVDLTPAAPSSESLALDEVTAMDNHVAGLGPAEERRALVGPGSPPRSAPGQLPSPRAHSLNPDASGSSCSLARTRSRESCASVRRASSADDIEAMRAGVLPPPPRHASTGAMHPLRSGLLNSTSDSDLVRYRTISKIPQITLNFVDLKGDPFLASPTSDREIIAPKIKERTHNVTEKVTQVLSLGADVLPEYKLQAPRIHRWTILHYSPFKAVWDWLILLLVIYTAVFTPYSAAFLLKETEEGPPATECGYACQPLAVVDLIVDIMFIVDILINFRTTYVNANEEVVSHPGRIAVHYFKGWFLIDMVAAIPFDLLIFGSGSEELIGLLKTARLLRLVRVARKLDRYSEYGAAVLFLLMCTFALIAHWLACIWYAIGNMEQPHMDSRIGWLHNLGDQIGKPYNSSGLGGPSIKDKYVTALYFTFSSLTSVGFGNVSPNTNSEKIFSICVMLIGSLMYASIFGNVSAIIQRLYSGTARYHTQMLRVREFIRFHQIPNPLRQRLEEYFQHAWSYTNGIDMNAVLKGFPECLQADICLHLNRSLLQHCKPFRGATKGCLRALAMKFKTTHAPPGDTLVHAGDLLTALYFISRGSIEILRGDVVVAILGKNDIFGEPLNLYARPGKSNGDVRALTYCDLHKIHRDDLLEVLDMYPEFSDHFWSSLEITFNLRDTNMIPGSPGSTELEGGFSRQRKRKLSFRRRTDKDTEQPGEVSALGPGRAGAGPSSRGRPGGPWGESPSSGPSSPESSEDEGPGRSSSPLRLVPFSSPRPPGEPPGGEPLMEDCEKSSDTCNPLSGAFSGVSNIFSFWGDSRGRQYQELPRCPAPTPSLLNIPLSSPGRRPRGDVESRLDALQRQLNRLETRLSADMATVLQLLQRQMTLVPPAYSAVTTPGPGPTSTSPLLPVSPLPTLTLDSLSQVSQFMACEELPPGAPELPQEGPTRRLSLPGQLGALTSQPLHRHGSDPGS

[3] = Drug metabolism in human liver microsomes after 20 mins; type: ADME; settings: read-out: Drug metabolism
[4] = molecular target: T2, SSAO (amine oxidase [copper-containing] 3) (Homo sapiens, UniProt Q16853); assay: Stability of the compound assessed as human full length SSAO-mediated drug metabolism expressed in CHO cells measured as compound remaining after 20 mins; type: ADME, cell-based; settings: CHO cells expressing human full length SSAO, read-out: Stability
T2 sequence (Q16853 whole entry): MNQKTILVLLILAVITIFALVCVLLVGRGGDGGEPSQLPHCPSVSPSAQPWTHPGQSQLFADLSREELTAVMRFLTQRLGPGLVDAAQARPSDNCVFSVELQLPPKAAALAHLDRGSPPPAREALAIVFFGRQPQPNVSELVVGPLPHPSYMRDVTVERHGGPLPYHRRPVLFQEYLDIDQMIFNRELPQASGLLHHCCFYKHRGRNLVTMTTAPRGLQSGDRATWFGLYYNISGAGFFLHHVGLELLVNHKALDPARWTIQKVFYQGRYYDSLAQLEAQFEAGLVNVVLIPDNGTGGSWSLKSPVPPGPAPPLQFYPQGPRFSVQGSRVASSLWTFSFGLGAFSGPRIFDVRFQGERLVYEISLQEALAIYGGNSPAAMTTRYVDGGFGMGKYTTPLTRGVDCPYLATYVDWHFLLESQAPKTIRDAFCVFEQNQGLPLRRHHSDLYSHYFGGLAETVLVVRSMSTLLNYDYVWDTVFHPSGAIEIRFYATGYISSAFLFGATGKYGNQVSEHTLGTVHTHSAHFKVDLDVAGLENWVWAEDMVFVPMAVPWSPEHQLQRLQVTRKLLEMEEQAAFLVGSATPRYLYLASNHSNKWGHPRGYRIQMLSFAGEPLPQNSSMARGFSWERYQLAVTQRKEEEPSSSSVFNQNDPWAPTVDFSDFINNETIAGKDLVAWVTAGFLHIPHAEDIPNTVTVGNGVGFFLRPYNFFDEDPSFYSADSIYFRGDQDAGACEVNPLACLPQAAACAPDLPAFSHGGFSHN

[5] = molecular target: T1, hERG (KCNH2); assay: Inhibition of human ERG channel expressed in CHO cells at 1 uM; type: cell-based; settings: CHO cells expressing human ERG channel
[6] = Drug metabolism in guinea pig liver microsomes after 20 mins; type: ADME, Cavia porcellus; settings: read-out: Drug metabolism

Row | SMILES | metabolised at 20 min [1] | inhibition at 10 µM [2] | metabolised at 20 min [3] | remaining at 20 min [4] | inhibition at 1 µM [5] | metabolised at 20 min [6]
1 | COCCn1cc(C(=O)N2CCC3(CC2)COc2ccc(CN)cc23)c2cccc(F)c21 | 10% | 16% | 17% | 89% | 11% | 12%
2 | COCCn1cc(C(=O)N2CCC(c3cc(CN)ccc3F)CC2)c2cccc(F)c21 | 21% | – | 71% | 78% | – | 38%
3 | NCc1cccc(C2CCN(C(=O)c3ccc(C#Cc4ccccc4F)o3)CC2)c1 | – | – | – | 8% | – | –
